These results are taken from ChEMBL document CHEMBL4304769, “Discovery of Potent and Orally Bioavailable Inverse Agonists of the Retinoic Acid Receptor-Related Orphan Receptor C2” (ACS Med Chem Lett, 2019).

One series in a line: physchem. The following applies: 1-octanol/PBS buffer, pH 7.4.
The nature of series [1]: in vivo. The settings on record: Wistar Han, rat, iv, 1 mg/kg.
Series [2] in a line: in vivo. The following applies: Wistar Han, rat, po, 2 mg/kg.
The next series is described as follows: in vitro. The settings on record: human, Caco-2.

What is called logD is lipophilicity at a set pH, counting ionised and neutral species. `CCS(=O)(=O)c1ccc(CC(=O)Nc2cc(-c3cccc(Cl)c3)cs2)cc1` gave a logD in the series “physchem” of over 4.1. `CCS(=O)(=O)c1ccc(C(NC(=O)Cc2ccnnc2)C(=O)Nc2ccc(C(O)(C(F)(F)F)C(F)(F)F)cc2)cc1` (configuration not stated) displayed a logD in the series “physchem” of 2.9.

As to `CCS(=O)(=O)c1ccc(CC(=O)Nc2ccc(C(C(F)(F)F)C(F)(F)F)cc2)cc1`, the logD in the series “physchem” was 3.9.

`CCS(=O)(=O)c1ccc(C(NC(=O)Cc2ccncn2)C(=O)Nc2ccc(C(O)(C(F)(F)F)C(F)(F)F)cc2)cc1` (configuration not stated) registered a logD in the series “physchem” of 2.8. Still for that read-out and setting: for `CCS(=O)(=O)c1ccc(C(NC(=O)Cc2ccccn2)C(=O)Nc2ccc(C(O)(C(F)(F)F)C(F)(F)F)cc2)cc1` (configuration not stated) the value was 3.3; for `CCS(=O)(=O)c1ccc(CC(=O)Nc2ccc(-c3cccc(Cl)c3)cc2)cc1`, over 4; for `CCS(=O)(=O)c1ccc(C(NC(=O)NC)C(=O)Nc2ccc(C(O)(C(F)(F)F)C(F)(F)F)cc2)cc1` (configuration not stated), 3.2. Take `CCS(=O)(=O)c1ccc(CC(=O)Nc2cccc(-c3cccc(Cl)c3)c2)cc1`: in “physchem”, the logD is over 4. As a reminder, the Vd is a proportionality between amount in the body and measured concentration, not a real space. Usually bioavailability stands for the share of a dose that reaches the circulation, judged against a reference dose that is usually intravenous. Low values mean little systemic uptake, high ones much systemic uptake. For `CCS(=O)(=O)c1ccc(C(NC(=O)Cc2ccccc2)C(=O)Nc2ccc(C(O)(C(F)(F)F)C(F)(F)F)cc2)cc1` (configuration not stated), in “in vivo [1]”, the Vd at 24 h came to 10.2 L/kg. In the series “in vivo [2]”, the bioavailability at 24 h turned out to be 5%. For the same compound, the log distribution coefficient (logD) in the series “physchem” stood at 4. In “physchem”, `CCS(=O)(=O)c1ccc(C(NC(=O)OC)C(=O)Nc2ccc(C(O)(C(F)(F)F)C(F)(F)F)cc2)cc1` (configuration not stated) showed a logD of 3.6. Compound `CCS(=O)(=O)c1ccc(C(NC(=O)c2ccccc2)C(=O)Nc2ccc(C(O)(C(F)(F)F)C(F)(F)F)cc2)cc1` (configuration not stated) gave a logD in “physchem” of over 4. Same read-out and setting: then `CCS(=O)(=O)c1ccc(C(NC(=O)Cc2cccnn2)C(=O)Nc2ccc(C(O)(C(F)(F)F)C(F)(F)F)cc2)cc1` (configuration not stated), with 2.5; and `CCS(=O)(=O)c1ccc(C(NC(=O)CCc2ccccc2)C(=O)Nc2ccc(C(O)(C(F)(F)F)C(F)(F)F)cc2)cc1` (configuration not stated), with over 4; and `CCS(=O)(=O)c1ccc(C(NC(=O)CC(C)C)C(=O)Nc2ccc(C(O)(C(F)(F)F)C(F)(F)F)cc2)cc1` (configuration not stated), with over 4.

Compound `CCS(=O)(=O)c1ccc(CC(=O)Nc2ccc(C(OC)(C(F)(F)F)C(F)(F)F)cc2)cc1` had a log distribution coefficient (logD) in the series “physchem” of 4.

In “physchem”, `CCS(=O)(=O)c1ccc(CC(=O)Nc2ccc(C(O)(C(F)(F)F)C(F)(F)F)cc2)cc1` returned a logD of 3.6.

Compound `CCS(=O)(=O)c1ccc(CC(=O)Nc2ccc([C@H](O)C(F)(F)F)cc2)cc1` had a logD in the series “physchem” of 2.1. The same measure, in the same setting: then `CCS(=O)(=O)c1ccc(C(N)C(=O)Nc2ccc(C(O)(C(F)(F)F)C(F)(F)F)cc2)cc1` (configuration not stated), with 2.8; and `CCS(=O)(=O)c1ccc(CC(=O)Nc2ccc(C(C)(C)C#N)cc2)cc1`, with 2.5. On to `CCS(=O)(=O)c1ccc(C(NC(=O)CC(C)(C)O)C(=O)Nc2ccc(C(O)(C(F)(F)F)C(F)(F)F)cc2)cc1` (configuration not stated), for which the logD in “physchem” turned out to be 3.3.

`CCS(=O)(=O)c1ccc(CC(=O)Nc2ccc(C(C)C)cc2)cc1`: in “physchem”, the logD is 3.5.

For `CCS(=O)(=O)c1ccc(C(NS(C)(=O)=O)C(=O)Nc2ccc(C(O)(C(F)(F)F)C(F)(F)F)cc2)cc1` (configuration not stated), in the series “physchem”, the logD was 2.7.

Broadly, the Papp is the rate of passage across a membrane or cell layer, normalised by area and donor concentration. A high value points to fast passage. Consider `CCS(=O)(=O)c1ccc(C(NC(C)=O)C(=O)Nc2cc(-c3cc(C#N)cc(F)c3OC)cs2)cc1` (racemic), for which the Vd at 24 h in “in vivo [1]” stood at 0.34 L/kg. Moreover, the bioavailability at 24 h in the series “in vivo [2]” worked out at 19%. In “in vitro”, the Papp stood at 0.3 ×10⁻⁶ cm/s.
